Test results published in patent US11819489B2 (priority 2017, dated 2023).
“And” between values parts separate entries of the source, which are not always exact repeats. Identical values can stand only once. “Also recorded” adds a separate entry of the source.

Tests used:
[1] = Stability of As-LHP complexes in Milli-Q water by XAS; format: physicochemical; conditions: 37° C.; for stability in Milli-Q water: XANES
Description: The stability of As-LHP complexes was studied by XAS. Samples were prepared by dissolving HyAs(LHP), MeAs(LHP) or PhAs(LHP) (1.5 mM) in Milli-Q water which was maintained at 37° C. Immediately prior to analysis the arsenic-peptide solution (600 μL) was mixed with ethylene glycol (300 μL) to prevent crystallisation during rapid freezing. The resultant solution (1 mM final As concentration) was transferred by syringe to the sample holder which was sealed with Kapton tape. The sample was then rapidly submerged in liquid nitrogen and transferred to the liquid helium cryostat where it was analysed at 10° K.
Arsenic K-edge XAS data were collected at the Australian National Beamline Facility (ANBF, beamline 20B) KEK, Tsukuba, Japan with a beam energy of 2.5 GeV, and beam current of 300-400 mA. A Si[111] channel-cut monochromator was detuned by 50% to reject harmonics. All spectra were recorded in fluorescence mode at ˜10° K (maintained with a closed-cycle He Cryolndustries REF-1577-D22 cryostat) using a 36-element Ge-array detector (Eurisys/Canberra Industries) and a 1-mm vertical slit width. XAS spectra were obtained at the zero time point and then at a later time point, 4 h or 14 h. The spectra from the two time points were processed and analysed using EXAFS PAK.

[2] = test system: K562 cells
[3] = Stability of As-LHP complexes in cell medium (IMDM) by XAS; format: physicochemical; conditions: 37° C., 0 h vs 24 h; for stability in IMDM: XANES
Description: The stability of the two most promising As-LHP complexes was also studied in cell medium (IMDM). Samples were prepared by dissolving MeAs(LHP) or PhAs(LHP) (1.5 mM) in IMDM which was maintained at 37° C. The same protocol was followed as that for the Milli-Q water stability studies. XAS spectra were obtained at the zero time point and then at 24 h. As with the Milli-Q water samples, the spectra from the two time points were processed, fitted and quantified using EXAFSPAK.

[4] = test system: Kasumi-1 cells; experiment: Cellular As uptake, Kasumi-1 cells; format: cell-based, human; conditions: 1.5 μM As
Description: (§1) FIG. 24 is a graphical summary of the cellular As concentrations associated with the specified cell lines following 24-h treatment (1.5 μM As). The results are represented as the mean and standard deviation of triplicate samples.
(§2) FIG. 24 summarises the cellular As concentrations associated with the different cell types following 24-h treatment with the various As compounds (1.5 μM As). The leukemia cell lines, K562, HL-60, Kasumi-1 and KARPAS 45, are depicted in red (lighter of the filled in blocks), and the non-leukemia cell types are depicted in black (darkest shading), with the cancerous adherent cells, HepG2, in the diagonal stripes, and the normal cells, hPBMC, in solid black.

[5] = test system: HepG2 cells; format: cell-based, human
[6] = test system: hPBMC; experiment: Cellular As uptake, hPBMC; format: cell-based, human; conditions: 24-h treatment, 1.5 μM As
Description: as §1, §2

[7] = test system: K562 cells; experiment: Fate of PhAs(LHP) in K562 cells (micrographs, microprobe SR-XRF, XANES); format: cell-based, human; conditions: K562, 10 μM
Description: (§3) The cell lines, K562 and HL-60, were obtained and maintained as previously described. Glutaraldehyde (25% solution), Spurr's low viscosity embedding resin, 3-mm gold Finder grids, and toluidine blue were sourced from Proscitech (Kirwan, Australia). Thin-sectioned cells were prepared for microprobe SRXRF analysis using procedures documented previously. Briefly the cells were treated in cell culture flasks (75 cm^2) with either IMDM (for the control cells, 4 h or 24 h) or PhAs(LHP) (10 μM in IMDM, 4 h or 24 h). The cells were washed with PBS (2 times) using centriguation and the final cell pellet was fixed in gluteraldehyde (1 mL, 2% v/v in PBS) for 2 h at room temperature; and dehydrated in ethanol (30%×2, 50%×2, 70%×2, 80%×2, 90%×2, 95%×2, 100%×4). Infiltration was achieved by rocking the cells in 50% ethanol/50% Spurr's resin overnight and then replacing with 100% Spurr's resin (×2 over 2 days) to ensure the removal of all traces of water. On the final day, the cells were embedded in 100% Spurr's resin, centrifuged (8000 g, 1 h) and cured at 60° C. overnight in a Beem capsule. Thin sections (1 μm) of the cell pellet were cut using an ultramicrotome (Leica EM UC7). The thin-sections were stained with toluidine blue before mounting on silicon nitride membranes.
The gold Finder grids were attached to kinematic mounts designed to fit both the light microscope (Leica DMXRE Epi-fluorescence/visual microscope) and the X-ray microprobe (2-ID-D). […]
Microprobe SR-XRF was performed at beamline 2-ID-D at the Advanced Photon Source, Argonne National Laboratory (Lemont, Ill., USA). […] Fluorescent X-rays were detected using a dwell time of 2.5 s/pt and an energy dispersive Vortex EM (Hitachi High-Technologies Science America, Northridge, Calif.) silicon drift detector. […] Conversion of elemental fluorescence intensities to absolute densities in microgram per square centimetre (μg/cm^2) was performed by comparing X-ray fluorescence intensities with those from thin film standards, NBS-1832 and NBS-1833 (NIST, Gaithersburg, Md., USA).

[8] = test system: HL-60 cells; experiment: Fate of PhAs(LHP) in HL-60 cells (micrographs, microprobe SR-XRF, XANES); format: cell-based, human; conditions: HL-60, 10 μM
Description: as §3
The gold Finder grids were attached to kinematic mounts designed to fit both the light microscope (Leica DMXRE Epi-fluorescence/visual microscope) and the X-ray microprobe (2-ID-D). Optical micrographs and XY coordinates were obtained in order to locate suitable cells for analysis.
Microprobe SR-XRF was performed at beamline 2-ID-D at the Advanced Photon Source, Argonne National Laboratory (Lemont, Ill., USA). The 11.9-keV X-ray beam was focused to a spot size of 0.3×0.3 μm^2 using two zone plates. The samples were housed in a helium atmosphere and the distributions of the elements from P (2.1 keV) to As (11.9 keV) were mapped by raster scanning the sample in 0.3 μm steps, with the aid of a XYZ motorised stage. Fluorescent X-rays were detected using a dwell time of 2.5 s/pt and an energy dispersive Vortex EM (Hitachi High-Technologies Science America, Northridge, Calif.) silicon drift detector. Elemental distribution maps were processed using MAPS Version 1.7.3.02 software package (S. Vogt, Advanced Photon Source). Conversion of elemental fluorescence intensities to absolute densities in microgram per square centimetre (μg/cm^2) was performed by comparing X-ray fluorescence intensities with those from thin film standards, NBS-1832 and NBS-1833 (NIST, Gaithersburg, Md., USA).

[9] = test system: HL-60 cells
[10] = test system: Kasumi-1 cells
[11] = test system: HepG2 cells
[12] = test system: A549 cells; conditions: 24-h treatment
[13] = test system: Chinese hamster (CH) solid tumour cells
[14] = test system: human peripheral blood mononuclear cells (hPBMC)
[15] = test system: K562 cells; experiment: Cellular As uptake, K562 cells; format: cell-based, human; conditions: K562, 24-h treatment, 1.5 μM As
Description: as §1, §2

[16] = test system: HL-60 cells; experiment: Cellular As uptake, HL-60 cells; format: cell-based, human; conditions: HL-60, 24-h treatment, 1.5 μM As
Description: as §1, §2

[17] = test system: KARPAS 45 cells; experiment: Cellular As uptake, KARPAS 45 cells; format: cell-based, human; conditions: KARPAS 45, 24-h treatment, 1.5 μM As
Description: as §1, §2

[18] = test system: KARPAS 45 cells

## CC(=O)N[C@H]1CS[As](O)SC[C@@H](C(=O)O)NC(=O)[C@H](CCCNC(=N)N)NC(=O)[C@H](CCCNC(=N)N)NC(=O)[C@H](CC(C)C)NC(=O)[C@H](CCCNC(=N)N)NC(=O)[C@H](Cc2c[nH]cn2)NC(=O)[C@H](Cc2ccc(O)cc2)NC(=O)[C@H](C)NC1=O (stereo partly shown) [HyAs(LHP)]
[1]; 0 h vs 4 h
  stability in Milli-Q water: not stable in Milli-Q water for 4 h; also recorded: lack of stability
[2]
  IC50 as percentage of that of ATO: 60%

## CC(=O)N[C@H]1CS[As](C)SC[C@@H](C(=O)O)NC(=O)[C@H](CCCNC(=N)N)NC(=O)[C@H](CCCNC(=N)N)NC(=O)[C@H](CC(C)C)NC(=O)[C@H](CCCNC(=N)N)NC(=O)[C@H](Cc2c[nH]cn2)NC(=O)[C@H](Cc2ccc(O)cc2)NC(=O)[C@H](C)NC1=O (stereo partly shown) [MeAs(LHP)]
[1]; 0 h vs 14 h
  agreement between As K-edge XANES spectra at the two time points: 93%
  stability in Milli-Q water: good stability
[3]
  agreement between As K-edge XANES spectra at the two time points: 82%
  stability in IMDM: reasonable stability
[2]
  IC50 as percentage of that of ATO: 37%
  IC50 as percentage of that of HyAs(LHP): 60%

## CC(=O)N[C@H]1CS[As](c2ccccc2)SC[C@@H](C(=O)O)NC(=O)[C@H](CCCNC(=N)N)NC(=O)[C@H](CCCNC(=N)N)NC(=O)[C@H](CC(C)C)NC(=O)[C@H](CCCNC(=N)N)NC(=O)[C@H](Cc2c[nH]cn2)NC(=O)[C@H](Cc2ccc(O)cc2)NC(=O)[C@H](C)NC1=O (stereo partly shown) [PhAs(LHP)]
[1]; 0 h vs 14 h
  agreement between As K-edge XANES spectra at the two time points: ~100%
  stability in Milli-Q water: stable in Milli-Q water for 14 h; also recorded: excellent stability
[3]
  agreement between As K-edge XANES spectra at the two time points: 97%
  stability in IMDM: reasonably stable in IMDM for 24 h; also recorded: good stability
[4]; 24-h treatment
  cellular As concentration in Kasumi-1 cells, times greater than in HL-60 cells: 1.4 times
  cellular As concentration in Kasumi-1 cells, times higher than in K562 cells: 1.2 times
  cellular As concentration in Kasumi-1 cells, times higher than in KARPAS 45 cells: 4.0 times
[5]
  cellular As concentration: no detectable cellular As concentrations
[6]
  cellular As concentration: no detectable cellular As concentrations
[7]; 4 h
  cell morphology (toluidine-blue micrograph): clear evidence of cell stress with fragmentation of the nucleus
[7]; 4 h and 24 h
  intracellular As distribution (microprobe SR-XRF): significant As throughout the cell with evidence of accumulation in the cell nucleus
[7]; 24 h
  cell morphology (toluidine-blue micrograph): breakdown of the cell membrane and fragmented/dispersed nuclear material
[8]; 4 h
  cell morphology (toluidine-blue micrograph): cell distress is evident
  intracellular As distribution (microprobe SR-XRF): only small localisations of As
[8]; 24 h
  cell morphology (toluidine-blue micrograph): high degree of cell degredation with evidence of cell demise
  intracellular As distribution (microprobe SR-XRF): the nucleus clearly contains a greater accumulation of As than the rest of the cell
[9]
  IC50: 0.5 ± 0.1 µM
  relative toxicity / IC50 versus another compound, in words (comparator in the value): three times greater toxicity toward HL-60 cells than the PAO starting material
[10]
  IC50: 1.4 ± 0.1 µM
  relative toxicity / IC50 versus another compound, in words (comparator in the value): approximately forty times more toxic than ATO
  times more toxic than PAO: 3.6 times
  times more toxic than PhAs(sLHP): about 460 times
[11]
  IC50: 978 ± 11 µM
  selectivity: IC50 in HepG2 cells, times greater than in K562 and HL-60 cells: ~2000 times
[12]
  selectivity: IC50 in A549 cells, times greater than in K562 and HL-60 cells: 470 times
[12]; A549 cells, MTT
  IC50: 234 ± 5 µM
[13]
  IC50: 770 ± 12 µM
  selectivity: IC50 in CH solid tumour cells, times greater than in K562 and HL-60 cells: approximately 1500 times
[14]
  IC50: 495 ± 6 µM
  selectivity: IC50 in hPBMC, times greater than in K562 and HL-60 cells: approximately 1000 times
  selectivity: IC50 in hPBMC, times greater than in KARPAS 45 cells: approximately 64 times

## CC(=O)N[C@H]1CS[As](c2ccccc2)SC[C@@H](C(=O)O)NC(=O)[C@H](CCCNC(=N)N)NC(=O)[C@H](CC(C)C)NC(=O)[C@H](Cc2ccc(O)cc2)NC(=O)[C@H](CCCNC(=N)N)NC(=O)[C@H](Cc2c[nH]cn2)NC(=O)[C@H](CCCNC(=N)N)NC(=O)[C@H](C)NC1=O (stereo partly shown) [PhAs(sLHP)]
[15]
  cellular As concentration: no detectable As uptake
[16]
  cellular As concentration: no detectable As uptake
[4]; Kasumi-1, 24-h treatment
  cellular As concentration: no detectable As uptake
[17]
  cellular As concentration: no detectable As uptake
[5]
  cellular As concentration: no detectable As uptake
[6]
  cellular As concentration: no detectable As uptake
[2]
  IC50: 790 ± 30 µM
  times less toxic than PhAs(LHP): 1600 times
[9]
  IC50: 205 ± 4 µM
[18]
  times less toxic than PhAs(LHP): 32 times
[11]
  IC50: 960 ± 10 µM
[14]
  IC50: 665 ± 8 µM

## arsenic trioxide [ATO]
[4]; 24-h treatment
  cellular As concentration in Kasumi-1 cells, times greater than in HepG2 cells: 5.5 times
[2]
  IC50: 9.7 ± 0.2 µM
  relative toxicity / IC50 versus another compound, in words (comparator in the value): approximately half that of arsenite
[9]
  IC50: 7 ± 0.1 µM
  relative toxicity / IC50 versus another compound, in words (comparator in the value): a little less than half that obtained for arsenite
[10]
  IC50: 61 ± 1 µM
[18]
  IC50: 15.1 µM and 15 µM
  IC50 as percentage of the value for arsenite: 23%
[11]
  IC50: 52 ± 3 µM
  times more toxic than arsenite: 1.7 times
[13]
  IC50: 23.3 ± 0.9 µM
[14]
  IC50: 81.7 µM and 82 µM
  relative toxicity / IC50 versus another compound, in words (comparator in the value): approximately twice that obtained for arsenite
